System: Beagle dogs
Assay: Subchronic toxicity test in Beagle dogs: serum biochemistry
Type: in vivo
Conditions: dogs
Experimental: HZ1006 was administered orally to dogs (four/sex/group) at doses of 80, 40, 20, 5 and 0 (control) mg/kg/day, and the dosage volume was 2 mL/kg. The dogs received test doses with the exact amounts on a weekly basis based on current body weights. […] The other dogs in the above groups were dissected on the planned days. For the other groups, half of the dogs were anatomized on d28 and the remaining half on d42.
The following indexes were examined for the dogs used in the study, twice during the pre-dosage period and on d14, d28 and d42. The following parameters were evaluated on d28 and d42 for the rats in the study:
The animal blood samples were collected in the tubes containing the coagulator and centrifuged at 500 g for 10 min; the supernatant was then collected into a new tube. The serum biochemistry indexes included the following: alanine aminotransferase (ALT), alkaline phosphatase (ALP), aspartate aminotransferase (AST), blood urea (BU), lactate dehydrogenase (LDH), total bilirubin (TBIL), creatinine (Crea), albumin (ALB), total protein (TP), triglycerides (TG), total cholesterol (TCH), γ-glutamyltranspeptidase (g-GT), glucose (GLU), creatine phosphokinase (CPK), uric acid (UA), phosphorus (P), and calcium (Ca^2+). The above parameters were analyzed using an Automatic Analyzer 7080 provided by Hitachi High-Technologies Corp. (Tokyo, Japan). An Na/K/Cl Analyzer EasyLyte PLUS from Medica Corp. (Bedford, MA, USA), was used to determine the levels of chloride (Cl^−), sodium (Na^+) and potassium (K^+) in the blood samples.

[1] = 20 mg/kg/day oral, d42 (recovery)
[2] = 40 mg/kg/day oral, d0 (pre-dose)
[3] = 40 mg/kg/day oral, d42 (recovery)
[4] = 80 mg/kg/day oral, d0 (pre-dose)
[5] = 80 mg/kg/day oral, d42 (recovery)

CCCCCCCNc1cc(/C=C/C(=O)NO)ccc1OCCN(CC)CC [HZ1006]
ALP: Alkaline phosphatase (20 mg/kg/day oral, d28): 0.98 ± 0.27 µmol/s/L | ALT: Alanine aminotransferase (20 mg/kg/day oral, d28): 486 ± 90 nmol/s/L | AST: Aspartate aminotransferase (20 mg/kg/day oral, d28): 408 ± 57 nmol/s/L | BU: Blood urea (20 mg/kg/day oral, d28): 5.37 ± 1.78 mmol/L | CPK: Creatine phosphokinase (20 mg/kg/day oral, d28): 2.38 ± 0.53 µmol/s/L | CREA: Creatinine (20 mg/kg/day oral, d28): 52.1 ± 10.3 µmol/L | LDH: Lactate dehydrogenase (20 mg/kg/day oral, d28): 1.54 ± 0.74 µmol/s/L | TBIL: Total bilirubin (20 mg/kg/day oral, d28): 2.29 ± 0.31 µmol/L | TCH: Total cholesterol (20 mg/kg/day oral, d28): 3.95 ± 0.55 mmol/L | TG: Triglycerides (20 mg/kg/day oral, d28): 0.34 ± 0.05 mmol/L | ALP: Alkaline phosphatase [1]: 1.00 ± 0.24 µmol/s/L | ALT: Alanine aminotransferase [1]: 523 ± 148 nmol/s/L | AST: Aspartate aminotransferase [1]: 412 ± 31 nmol/s/L | BU: Blood urea [1]: 4.05 ± 0.37 mmol/L | CPK: Creatine phosphokinase [1]: 2.17 ± 0.30 µmol/s/L | CREA: Creatinine [1]: 49.6 ± 0.6 µmol/L | LDH: Lactate dehydrogenase [1]: 2.28 ± 0.93 µmol/s/L | TBIL: Total bilirubin [1]: 1.88 ± 0.19 µmol/L | TCH: Total cholesterol [1]: 3.81 ± 0.18 mmol/L | TG: Triglycerides [1]: 0.33 ± 0.12 mmol/L | ALP: Alkaline phosphatase [2]: 1.62 ± 0.40 µmol/s/L | ALT: Alanine aminotransferase [2]: 526 ± 179 nmol/s/L | AST: Aspartate aminotransferase [2]: 462 ± 57 nmol/s/L | BU: Blood urea [2]: 3.95 ± 0.48 mmol/L | CPK: Creatine phosphokinase [2]: 3.27 ± 0.76 µmol/s/L | CREA: Creatinine [2]: 49.2 ± 6.2 µmol/L | LDH: Lactate dehydrogenase [2]: 3.39 ± 1.55 µmol/s/L | TBIL: Total bilirubin [2]: 2.24 ± 0.24 µmol/L | TCH: Total cholesterol [2]: 5.38 ± 1.95 mmol/L | TG: Triglycerides [2]: 0.41 ± 0.10 mmol/L | ALP: Alkaline phosphatase (40 mg/kg/day oral, d14): 1.03 ± 0.32 µmol/s/L | ALT: Alanine aminotransferase (40 mg/kg/day oral, d14): 433 ± 304 nmol/s/L | AST: Aspartate aminotransferase (40 mg/kg/day oral, d14): 313 ± 23 nmol/s/L | BU: Blood urea (40 mg/kg/day oral, d14): 4.52 ± 1.05 mmol/L | CPK: Creatine phosphokinase (40 mg/kg/day oral, d14): 2.36 ± 0.19 µmol/s/L | CREA: Creatinine (40 mg/kg/day oral, d14): 52.5 ± 6.1 µmol/L | LDH: Lactate dehydrogenase (40 mg/kg/day oral, d14): 1.29 ± 0.68 µmol/s/L | TBIL: Total bilirubin (40 mg/kg/day oral, d14): 1.81 ± 0.24 µmol/L | TCH: Total cholesterol (40 mg/kg/day oral, d14): 4.47 ± 0.71 mmol/L | TG: Triglycerides (40 mg/kg/day oral, d14): 0.41 ± 0.12 mmol/L | ALP: Alkaline phosphatase (40 mg/kg/day oral, d28): 1.30 ± 0.24 µmol/s/L | ALT: Alanine aminotransferase (40 mg/kg/day oral, d28): 347 ± 78 nmol/s/L | AST: Aspartate aminotransferase (40 mg/kg/day oral, d28): 378 ± 71 nmol/s/L | BU: Blood urea (40 mg/kg/day oral, d28): 4.66 ± 0.96 mmol/L | CPK: Creatine phosphokinase (40 mg/kg/day oral, d28): 3.00 ± 0.94 µmol/s/L | CREA: Creatinine (40 mg/kg/day oral, d28): 52.6 ± 9.8 µmol/L | LDH: Lactate dehydrogenase (40 mg/kg/day oral, d28): 2.76 ± 2.49 µmol/s/L | TBIL: Total bilirubin (40 mg/kg/day oral, d28): 2.04 ± 0.43 µmol/L | TCH: Total cholesterol (40 mg/kg/day oral, d28): 4.66 ± 1.85 mmol/L | TG: Triglycerides (40 mg/kg/day oral, d28): 0.43 ± 0.18 mmol/L | ALP: Alkaline phosphatase [3]: 1.34 ± 0.34 µmol/s/L | ALT: Alanine aminotransferase [3]: 514 ± 112 nmol/s/L | AST: Aspartate aminotransferase [3]: 468 ± 80 nmol/s/L | BU: Blood urea [3]: 4.87 ± 1.56 mmol/L | CPK: Creatine phosphokinase [3]: 3.00 ± 1.32 µmol/s/L | CREA: Creatinine [3]: 58.8 ± 2.0 µmol/L | LDH: Lactate dehydrogenase [3]: 3.50 ± 2.49 µmol/s/L | TBIL: Total bilirubin [3]: 1.88 ± 0.08 µmol/L | TCH: Total cholesterol [3]: 4.55 ± 1.10 mmol/L | TG: Triglycerides [3]: 0.45 ± 0.04 mmol/L | ALP: Alkaline phosphatase [4]: 1.62 ± 0.49 µmol/s/L | ALT: Alanine aminotransferase [4]: 591 ± 143 nmol/s/L | AST: Aspartate aminotransferase [4]: 493 ± 103 nmol/s/L | BU: Blood urea [4]: 4.38 ± 0.72 mmol/L | CPK: Creatine phosphokinase [4]: 3.24 ± 0.77 µmol/s/L | CREA: Creatinine [4]: 53.4 ± 5.2 µmol/L | LDH: Lactate dehydrogenase [4]: 2.71 ± 0.97 µmol/s/L | TBIL: Total bilirubin [4]: 2.64 ± 0.41 µmol/L | TCH: Total cholesterol [4]: 4.03 ± 1.04 mmol/L | TG: Triglycerides [4]: 0.38 ± 0.15 mmol/L | ALP: Alkaline phosphatase (80 mg/kg/day oral, d14): 1.27 ± 1.15 µmol/s/L | ALT: Alanine aminotransferase (80 mg/kg/day oral, d14): 312 ± 38 nmol/s/L | AST: Aspartate aminotransferase (80 mg/kg/day oral, d14): 386 ± 104 nmol/s/L | BU: Blood urea (80 mg/kg/day oral, d14): 4.66 ± 0.93 mmol/L | CPK: Creatine phosphokinase (80 mg/kg/day oral, d14): 3.29 ± 1.86 µmol/s/L | CREA: Creatinine (80 mg/kg/day oral, d14): 58.2 ± 4.8 µmol/L | LDH: Lactate dehydrogenase (80 mg/kg/day oral, d14): 1.76 ± 1.85 µmol/s/L | TBIL: Total bilirubin (80 mg/kg/day oral, d14): 2.74 ± 2.93 µmol/L | TCH: Total cholesterol (80 mg/kg/day oral, d14): 4.62 ± 2.51 mmol/L | TG: Triglycerides (80 mg/kg/day oral, d14): 0.56 ± 0.28 mmol/L | ALP: Alkaline phosphatase (80 mg/kg/day oral, d28): 1.01 ± 0.27 µmol/s/L | ALT: Alanine aminotransferase (80 mg/kg/day oral, d28): 307 ± 51 nmol/s/L | AST: Aspartate aminotransferase (80 mg/kg/day oral, d28): 310 ± 59 nmol/s/L | BU: Blood urea (80 mg/kg/day oral, d28): 5.25 ± 1.21 mmol/L | CPK: Creatine phosphokinase (80 mg/kg/day oral, d28): 1.73 ± 0.24 µmol/s/L | CREA: Creatinine (80 mg/kg/day oral, d28): 54.3 ± 8.9 µmol/L | LDH: Lactate dehydrogenase (80 mg/kg/day oral, d28): 0.97 ± 0.30 µmol/s/L | TBIL: Total bilirubin (80 mg/kg/day oral, d28): 2.19 ± 0.20 µmol/L | TCH: Total cholesterol (80 mg/kg/day oral, d28): 4.16 ± 1.39 mmol/L | TG: Triglycerides (80 mg/kg/day oral, d28): 0.45 ± 0.11 mmol/L | ALP: Alkaline phosphatase [5]: 0.99 ± 0.14 µmol/s/L | ALT: Alanine aminotransferase [5]: 549 ± 181 nmol/s/L | AST: Aspartate aminotransferase [5]: 460 ± 83 nmol/s/L | BU: Blood urea [5]: 4.93 ± 0.50 mmol/L | CPK: Creatine phosphokinase [5]: 2.86 ± 0.53 µmol/s/L | CREA: Creatinine [5]: 65.9 ± 11.3 µmol/L | TBIL: Total bilirubin [5]: 1.90 ± 0.23 µmol/L | TCH: Total cholesterol [5]: 3.52 ± 0.84 mmol/L | TG: Triglycerides [5]: 0.40 ± 0.14 mmol/L
